Measured values as given in paper PMC11194663, “Synthesis and biological research of new imidazolone-sulphonamide-pyrimidine hybrids as potential EGFR-TK inhibitors and apoptosis-inducing agents” (RSC Advances, 2024).

Key:
[1] = system: breast MCF-7 cancerous cell line; assay: MTT cytotoxicity assay; conditions: Homo sapiens, MCF7, 24 h, read-out: IC50 (μM) MCF-7
EGFR-TK = target: T1, EGFR-TK (Homo sapiens, UniProt P00533); assay: EGFR kinase inhibitory assay (BPS Bioscience EGFR Kinase Assay Kit); type: biochemical; conditions: mean of three replicates; read-out: IC50 on EGFR enzyme
T1 construct: purchased BPS Bioscience 40321
Experimental: S4.2.1. Cytotoxic activity evaluation […]
adenocarcinoma (MCF-7) cell line. Cell viability assay was assessed using MTT assay […]
under 5% CO2. After incubation, the cells were treated with different concentrations of the test imidazolone hybrids 5a-l and 6a,b and incubated for 24 h, then 20 µl of MTT […]
(DMSO) in volume of 100 µl was added to each well to dissolve the purple formazan that had formed. The color intensity of the formazan product, which represents the […]
USA) at 570 nm absorbance. The experimental conditions were carried out with at least three replicates, and the experiments were repeated at least three times.
S4.2.2. EGFR kinase Assay […]
activity according to manufacturer’s instructions using # BPS Bioscience EGFR

Bax = assay: qRT-PCR expression of pro-apoptotic Bax in MCF-7 cells; type: cell-based; conditions: IC50 concentration, 48 h, MCF-7, increase
Text: (§1) The Bcl-2 family members are essential in determining whether a cell will survive or perish since they reside upstream of the irreversible cellular damage.[40] Two groups of the Bcl-2 family proteins are distinguished by pro-survival (e.g. Bcl-2) or pro-apoptotic (Bax) activity.[41] The pro-apoptotic factors promote cellular death. When Bcl-2-associated x-protein (Bax) homodimerizes it enhances apoptosis. The anti-apoptotic effect of Bcl-2 may be due to its ability to inhibit Bax homodimerization.[42,43] […] It is noteworthy, that the level of pro-survival Bcl-2 protein declined by 0.28-fold compared to the control untreated cells. […] These findings support that 4-(furan-2-ylmethylene)imidazolone-sulphonamide-pyrimidine hybrid 6b induces apoptosis by regulating the expression of Bcl-2 family proteins.
(§2) Fig. 5 Roles of Bcl-2 family protein in apoptosis induced by 4-(furan-2-ylmethylene)imidazolone-sulphonamide-pyrimidine hybrid 6b. (A) Pro-survival Bcl-2 protein; (B) pro-apoptotic Bax protein. Cells underwent treatment with an IC50 concentration of imidazolone hybrids 6b for 48 h and the expression of apoptosis-related proteins was examined by qRT-PCR assay.

MCF-7 cells [2] = assay: Annexin V-FITC/PI apoptosis assay by flow cytometry; type: cell-based; conditions: IC50 concentration, 48 h
Text: Apoptosis, a form of programmed cellular death, is a widespread phenomenon, occurring in processes such as morphogenesis, growth and development as well as normal turnover in adult tissue.[35] Most cells are programmed to die if survival signals are not received regularly from their environment.[36] It can be initiated by endogenous tissue-specific agents such as cytokines or exogenous cell-damaging agents such as chemicals.[37] It is evidenced from the literature that exposure to EGFR-TK inhibitors leads to cellular apoptosis.[38] Thus, the effect of examined 4-(furan-2-ylmethylene)imidazolone-sulphonamide-pyrimidine hybrid 6b on the apoptosis of the MCF-7 cells was assessed utilizing Annexin V-FITC/PI double labeling followed by flow cytometry (Fig. 4). […] 4-(furan-2-ylmethylene)imidazolone-sulphonamide-pyrimidine hybrid 6b induced 46.1% apoptosis in the MCF-7 cancer cells. Thus, it is evident that this compound had substantial apoptosis-inducing action against the MCF-7 breast cancerous cell line.
Apoptosis in MCF-7 cells was investigated using fluorescent Annexin V-FITC/ PI detection kit (BioVision Annexin V-FITC Apoptosis Detection Kit, Catalog #: K101) by flow cytometry assay. MCF-7 cells at a density of 2 × 10^5 per well were treated with compound 6b at the IC50 (µM) for 48 h, then the cells were harvested and stained with Annexin V-FITC/ PI dye for 15 min in the dark at 37 °C. The samples were immediately analyzed using FACS Calibur flow cytometer (Becton and Dickinson, […]

MCF-7 cells [3] = assay: Cell cycle analysis by flow cytometry (PI); type: cell-based; conditions: 1.05 μM (IC50), 48 h
Experimental: The impact of the best potent hybrid molecule on the cellular cycle distribution was further evaluated on the MCF-7 cell line.
S4.2.3. Cell cycle analysis of compound 6b
Cell cycle analysis in MCF-7 cells was investigated using fluorescent Annexin V-FITC/ PI detection kit (BioVision EZCellTM Cell Cycle Analysis Kit Catalog #K920) by flow cytometry assay. MCF-7 cells at a density of 2 × 10^5 per well were harvested and washed twice in PBS. After that, the cells were incubated at 37 °C and 5% CO2. The medium was incubated with the tested compound 6b at the IC50 (µM) for 48 h, washed twice in PBS, fixed with 70% ethanol, rinsed again with PBS. Afterward, medium was stained with DNA fluorochrome PI for 15 min at 37 °C. The samples were immediately analyzed using Facs Calibur flow cytometer (Becton and Dickinson, Heidelberg, […]
S4.2.4. Apoptosis assay for compound 6b
(1 picture or pasted object on this page, not shown here)

Bcl-2 = assay: qRT-PCR expression of pro-survival Bcl-2 in MCF-7 cells; type: cell-based; conditions: IC50 concentration, 48 h, MCF-7, decline
Text: as §1, §2

T1 sequence (P00533 25-1210): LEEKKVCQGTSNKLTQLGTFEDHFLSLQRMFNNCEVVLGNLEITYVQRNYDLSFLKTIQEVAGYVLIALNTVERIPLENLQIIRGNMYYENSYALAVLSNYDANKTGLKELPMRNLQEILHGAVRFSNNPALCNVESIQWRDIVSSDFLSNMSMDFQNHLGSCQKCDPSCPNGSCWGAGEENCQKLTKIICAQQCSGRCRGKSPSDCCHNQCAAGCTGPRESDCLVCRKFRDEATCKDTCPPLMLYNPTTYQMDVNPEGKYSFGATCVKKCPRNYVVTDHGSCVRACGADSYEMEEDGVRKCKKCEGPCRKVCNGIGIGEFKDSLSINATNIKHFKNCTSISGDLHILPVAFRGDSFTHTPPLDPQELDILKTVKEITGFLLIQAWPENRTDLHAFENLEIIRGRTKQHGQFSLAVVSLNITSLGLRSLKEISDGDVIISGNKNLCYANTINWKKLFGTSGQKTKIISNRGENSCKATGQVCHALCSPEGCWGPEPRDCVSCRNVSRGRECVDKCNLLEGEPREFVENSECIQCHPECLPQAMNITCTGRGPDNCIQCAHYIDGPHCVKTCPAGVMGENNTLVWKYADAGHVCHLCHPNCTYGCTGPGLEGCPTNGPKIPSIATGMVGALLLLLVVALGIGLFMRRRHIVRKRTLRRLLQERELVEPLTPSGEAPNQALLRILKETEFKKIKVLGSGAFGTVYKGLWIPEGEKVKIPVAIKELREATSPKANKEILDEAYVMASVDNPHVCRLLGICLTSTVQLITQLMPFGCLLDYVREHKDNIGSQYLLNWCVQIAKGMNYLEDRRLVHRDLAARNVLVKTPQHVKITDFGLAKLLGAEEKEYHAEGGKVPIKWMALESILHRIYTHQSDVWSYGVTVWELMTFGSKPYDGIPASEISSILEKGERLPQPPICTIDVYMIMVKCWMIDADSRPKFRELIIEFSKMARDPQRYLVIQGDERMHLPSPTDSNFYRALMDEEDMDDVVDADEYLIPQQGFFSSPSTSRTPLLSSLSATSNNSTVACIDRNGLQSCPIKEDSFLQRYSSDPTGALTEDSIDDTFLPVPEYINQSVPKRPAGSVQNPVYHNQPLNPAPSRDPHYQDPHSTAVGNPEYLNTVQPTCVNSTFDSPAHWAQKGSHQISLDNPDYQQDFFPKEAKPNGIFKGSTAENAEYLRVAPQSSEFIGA

SMILES	melting point	IC50 [1]	other results
O=C1/C(=C/c2ccc(Br)cc2)N=C(c2ccccc2)N1c1ccc(S(=O)(=O)Nc2ncccn2)cc1 [5a, (Z)-4-(4-(4-bromobenzylidene)-5-oxo-2-phenyl-4,5-dihydro-1H-imidazole-1-yl)-N-(pyrimidin-2-yl)benzenesulfonamide]	290 to 292 °C	14.1 ± 0.68 µM	
O=C1/C(=C/c2ccccc2O)N=C(c2ccccc2)N1c1ccc(S(=O)(=O)Nc2ncccn2)cc1 [5b, (Z)-4-(4-(2-hydroxybenzylidene)-5-oxo-2-phenyl-4,5-dihydro-1H-imidazole-1-yl)-N-(pyrimidin-2-yl)benzenesulfonamide]	188 to 190 °C	31.4 ± 1.64 µM	
Cc1ccc(/C=C2\N=C(c3ccccc3)N(c3ccc(S(=O)(=O)Nc4ncccn4)cc3)C2=O)cc1 [5c, (Z)-4-(4-(4-methylbenzylidene)-5-oxo-2-phenyl-4,5-dihydro-1H-imidazole-1-yl)-N-(pyrimidin-2-yl)benzenesulfonamide]	277 to 279 °C	43.9 ± 2.24 µM	
COc1ccc(/C=C2\N=C(c3ccccc3)N(c3ccc(S(=O)(=O)Nc4ncccn4)cc3)C2=O)c(OC)c1OC [5e, (Z)-4-(5-oxo-2-phenyl-4-(2,3,4-trimethoxybenzylidene)-4,5-dihydro-1H-imidazole-1-yl)-N-(pyrimidin-2-yl)benzenesulfonamide]	210 to 212 °C	37.2 ± 1.98 µM	
COc1ccc(C2=N/C(=C\c3ccc(F)cc3)C(=O)N2c2ccc(S(=O)(=O)Nc3ncccn3)cc2)cc1 [5g, (Z)-4-(4-(4-fluorobenzylidene)-2-(4-methoxyphenyl)-5-oxo-4,5-dihydro-1H-imidazole-1-yl)-N-(pyrimidin-2-yl)benzenesulfonamide]	257 to 259 °C	4.57 ± 0.09 µM	
COc1ccc(C2=N/C(=C\c3ccc(Br)cc3)C(=O)N2c2ccc(S(=O)(=O)Nc3ncccn3)cc2)cc1 [5i, (Z)-4-(4-(4-bromobenzylidene)-2-(4-methoxyphenyl)-5-oxo-4,5-dihydro-1H-imidazole-1-yl)-N-(pyrimidin-2-yl)benzenesulfonamide]	284 to 286 °C	9.98 ± 0.61 µM	
COc1ccc(C2=N/C(=C\c3cc(Br)c(OC(C)=O)c(Br)c3)C(=O)N2c2ccc(S(=O)(=O)Nc3ncccn3)cc2)cc1 [5k, (Z)-2,6-dibromo-4-((2-(4-methoxyphenyl)-5-oxo-1-(4-(N-pyrimidin-2-ylsulfamoyl)phenyl)-1H-imidazole-4(5H)-ylidene)methyl)phenyl acetate]	239 to 241 °C	14.5 ± 0.65 µM	
COc1ccc(C2=N/C(=C\c3cc(OC)c(OC)c(OC)c3)C(=O)N2c2ccc(S(=O)(=O)Nc3ncccn3)cc2)cc1 [5l, (Z)-4-(2-(4-methoxyphenyl)-5-oxo-4-(3,4,5-trimethoxybenzylidene)-4,5-dihydro-1H-imidazole-1-yl)-N-(pyrimidin-2-yl)benzenesulfonamide]	247 to 249 °C	25.8 ± 1.24 µM	
O=C1/C(=C/c2ccco2)N=C(c2ccccc2)N1c1ccc(S(=O)(=O)Nc2ncccn2)cc1 [6a, (Z)-4-(4-(furan-2-ylmethylene)-5-oxo-2-phenyl-4,5-dihydro-1H-imidazole-1-yl)-N-(pyrimidin-2-yl)benzenesulfonamide]	291 to 293 °C	5.09 ± 0.31 µM	
COc1ccc(C2=N/C(=C\c3ccco3)C(=O)N2c2ccc(S(=O)(=O)Nc3ncccn3)cc2)cc1 [6b, (Z)-4-(4-(furan-2-ylmethylene)-2-(4-methoxyphenyl)-5-oxo-4,5-dihydro-1H-imidazole-1-yl)-N-(pyrimidin-2-yl)benzenesulfonamide]		1.05 ± 0.04 µM	Bax expression level relative to untreated control (Bax): 4.54 fold; apoptosis induced in MCF-7 cells (total) (MCF-7 cells [2]): 46.1%; apoptotic cells in the late stage (upper right quadrant) (MCF-7 cells [2]; control 0.2%): 23.4%; apoptotic cells in the early stage (lower right quadrant) (MCF-7 cells [2]; control 0.6%): 22.7%; IC50 (EGFR-TK): 0.09 µM; MCF-7 cells in G2/M phase (MCF-7 cells [3]; control 13.7%): 10.8%; MCF-7 cells in S phase (MCF-7 cells [3]; control 35.1%): 24.3%; MCF-7 cells in G1 phase (MCF-7 cells [3]; control 51.2%): 64.9%; Bcl-2 expression level relative to untreated control (Bcl-2): 0.28 fold
COc1cccc2c1C(=O)c1c(O)c3c(c(O)c1C2=O)C[C@@](O)(C(=O)CO)C[C@@H]3O[C@H]1C[C@H](N)[C@H](O)[C@H](C)O1 [Dox, doxorubicin, reference compound]		1.91 ± 0.07 µM	

More lines, main results first:

melting point	SMILES	IC50 [1]	other results
243 to 245 °C	CC(=O)Oc1c(Br)cc(/C=C2\N=C(c3ccccc3)N(c3ccc(S(=O)(=O)Nc4ncccn4)cc3)C2=O)cc1Br [5d, (Z)-2,6-dibromo-4-((5-oxo-2-phenyl-1-(4-(N-pyrimidin-2-ylsulfamoyl)phenyl)-1H-imidazole-4(5H)-ylidene)methyl)phenyl acetate]	29.4 ± 1.64 µM	
258 to 260 °C	COc1ccc(C2=N/C(=C\c3ccccc3)C(=O)N2c2ccc(S(=O)(=O)Nc3ncccn3)cc2)cc1 [5f, (Z)-4-(4-benzylidene-2-(4-methoxyphenyl)-5-oxo-4,5-dihydro-1H-imidazole-1-yl)-N-(pyrimidin-2-yl)benzenesulfonamide]	85.2 ± 4.72 µM	
262 to 264 °C	COc1ccc(C2=N/C(=C\c3ccc(Cl)cc3)C(=O)N2c2ccc(S(=O)(=O)Nc3ncccn3)cc2)cc1 [5h, (Z)-4-(4-(4-chlorobenzylidene)-2-(4-methoxyphenyl)-5-oxo-4,5-dihydro-1H-imidazole-1-yl)-N-(pyrimidin-2-yl)benzenesulfonamide]	3.71 ± 0.2 µM	IC50 (EGFR-TK): 0.16 µM
> 300 °C	COc1ccc(C2=N/C(=C\c3ccc([N+](=O)[O-])cc3)C(=O)N2c2ccc(S(=O)(=O)Nc3ncccn3)cc2)cc1 [5j, (Z)-4-(2-(4-methoxyphenyl)-4-(4-nitrobenzylidene)-5-oxo-4,5-dihydro-1H-imidazole-1-yl)-N-(pyrimidin-2-yl)benzenesulfonamide]	3.14 ± 0.16 µM	IC50 (EGFR-TK): 0.21 µM
